We go through 59 compounds from US10851064B2, “ACSS2 inhibitors and methods of use thereof” (METABOMED LTD., priority 2017, dated 2020).

Structures are written as SMILES.

Assay [1] concerns the target T1, ACSS2 (Homo sapiens, UniProt Q9NR19). The assay can be described thus: cell-based.
Experimental: Testing the inhibitory effect of compounds on the cellular activity of ACSS2 was done by tracing the incorporation of ^13C from ^13C-acetate into fatty-acids in MDA-MB-468 cells under hypoxic conditions of 1% 02. The assay was done for 5 hours in DMEM with 5.5 mM glucose, 1 mM sodium Pyruvate, 0.65 mM Glutamine, 3.5 ug/ml Biotin, 1% dialyzed serum, 0.5 mM 13C-acetate and with different concentrations of the inhibitors. At the end of the incubation, the cells were washed with cold PBS, harvested into glass tubes and undergo saponification. The level of ^13C incorporation into Palmitate was done by LC-MS analysis and the level of inhibition was calculated with PRISM software.
Assay [2] has as its target T1, ACSS2. The assay can be described thus: biochemical.

T1 sequence (Q9NR19 whole entry): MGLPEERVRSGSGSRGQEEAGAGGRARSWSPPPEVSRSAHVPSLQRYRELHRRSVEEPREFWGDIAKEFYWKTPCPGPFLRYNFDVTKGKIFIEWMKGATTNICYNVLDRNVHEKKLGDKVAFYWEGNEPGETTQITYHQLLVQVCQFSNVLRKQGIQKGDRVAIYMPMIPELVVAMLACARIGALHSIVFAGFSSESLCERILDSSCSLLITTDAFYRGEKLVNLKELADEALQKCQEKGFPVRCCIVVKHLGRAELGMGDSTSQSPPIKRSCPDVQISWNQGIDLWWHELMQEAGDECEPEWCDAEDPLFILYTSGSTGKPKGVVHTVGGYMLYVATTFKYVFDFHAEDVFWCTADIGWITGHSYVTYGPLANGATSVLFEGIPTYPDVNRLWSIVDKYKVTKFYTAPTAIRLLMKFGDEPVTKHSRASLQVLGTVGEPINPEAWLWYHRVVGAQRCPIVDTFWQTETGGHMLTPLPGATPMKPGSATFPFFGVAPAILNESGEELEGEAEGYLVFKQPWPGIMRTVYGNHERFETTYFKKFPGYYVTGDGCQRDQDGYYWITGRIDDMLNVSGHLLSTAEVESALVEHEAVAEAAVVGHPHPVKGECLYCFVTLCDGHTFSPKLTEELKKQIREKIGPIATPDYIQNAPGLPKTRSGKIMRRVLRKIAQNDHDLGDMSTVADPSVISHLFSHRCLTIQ

On ACSS2 [1], `CC1=NN(c2ccc(OC3CCC3)cc2)C(=O)C1C(=O)Nc1cccc(C(C)(F)F)c1` (stereo not drawn) [compound 325] registered an IC50 of 0.5 to 50 nM. Compound `CC1=NN(c2ccc(OC(C)C)cc2)C(=O)C1C(=O)Nc1cccc(C(C)(F)F)c1` (stereo not drawn) [compound 318] returned an IC50 on ACSS2 [1] of 0.5 to 50 nM. On to `CC1=NN(c2ccc(C(F)(F)F)cc2)C(=O)C1C(=O)Nc1cccc(C(C)(F)F)c1` (stereo not drawn) [compound 264], for which the figures for the IC50 at ACSS2 [2] and against ACSS2 [1] were 0.01 to 6 nM and 0.5 to 50 nM, respectively. Take `CC1=NN(c2ccc(S(=O)(=O)N(C)C)cc2)C(=O)C1C(=O)Nc1cccc(C(C)(F)F)c1` (stereo not drawn) [compound 253]: the IC50 fell in the range of 0.01 to 6 nM against ACSS2 [2] and 0.5 to 50 nM against ACSS2 [1]. For `CC1=NN(c2cccc(-c3nnc(C)o3)c2)C(=O)C1C(=O)Nc1cccc(C(C)(F)F)c1` (stereo not drawn) [compound 280], in that order: 0.01 to 6 nM and 0.5 to 50 nM. At ACSS2 [1], `CCC(F)(F)c1cccc(NC(=O)C2C(=O)N(c3ccc(OC)cc3)N=C2C)c1` (stereo not drawn) [compound 330] yielded a concentration for half-maximal inhibition (IC50) of 0.5 to 50 nM. With `CC1=NN(c2cccc(C(=O)OC(C)C)c2)C(=O)C1C(=O)Nc1cccc(-c2ccco2)c1` (stereo not drawn) [compound 237], the IC50 against ACSS2 [2] is 6 to 100 nM; on ACSS2 [1], > 100 nM.

Turning to `CC1=NN(c2cccc(C(=O)OC(C)C)c2)C(=O)C1C(=O)Nc1cccc(C(C)(F)F)c1` (stereo not drawn) [compound 236], the figures for the IC50 at ACSS2 [2] and on ACSS2 [1] were 0.01 to 6 nM and 0.5 to 50 nM, respectively. `CC1=NN(c2cccc(S(=O)(=O)N(C)C)c2)C(=O)C1C(=O)Nc1cccc(C(C)(F)F)c1` (stereo not drawn) [compound 252]: the IC50 against ACSS2 [2] is 0.01 to 6 nM; at ACSS2 [1], 50 to 100 nM.

In the case of `CC1=NN(c2ccc(-c3nnn[nH]3)cc2)C(=O)C1C(=O)Nc1cccc(C(C)(F)F)c1` (stereo not drawn) [compound 297], the IC50 at ACSS2 [2] was 0.01 to 6 nM; against ACSS2 [1], > 100 nM. On to `CC1=NN(c2ccc(OC(F)F)cc2F)C(=O)C1C(=O)Nc1cccc(C(C)(F)F)c1` (stereo not drawn) [compound 309], for which the IC50 at ACSS2 [1] lay within 0.5 to 50 nM. For `CC1=NN(c2ccncc2)C(=O)C1C(=O)Nc1cccc(C(C)(F)F)c1` (stereo not drawn) [compound 231], the IC50 was 6 to 100 nM at ACSS2 [2] and > 100 nM against ACSS2 [1]. With `COc1ccc(N2N=C(C)C(C(=O)Nc3cccc(-c4ccco4)c3)C2=O)cc1` (stereo not drawn) [compound 266], the IC50 on ACSS2 [2] fell in the range of 0.01 to 6 nM; at ACSS2 [1], 0.5 to 50 nM. For `CCCOc1ccc(N2N=C(C)C(C(=O)Nc3cccc(C(C)(F)F)c3)C2=O)cc1` (stereo not drawn) [compound 317], the IC50 against ACSS2 [1] lay in the range of 0.5 to 50 nM.

Compound `COc1ccc(N2N=C(C)C(C(=O)Nc3cccc(C(C)(F)F)c3)C2=O)cc1-c1ccccc1` (stereo not drawn) [compound 313] displayed an IC50 at ACSS2 [1] of 0.5 to 50 nM. Consider `CC1=NN(c2cccc(C(F)(F)F)c2)C(=O)C1C(=O)Nc1cccc(-c2ncco2)c1` (stereo not drawn) [compound 257], for which the IC50 is 6 to 100 nM at ACSS2 [2] and > 100 nM at ACSS2 [1]. As for `CC1=NN(c2ccc(OC(F)F)cc2)C(=O)C1C(=O)Nc1cccc(C(C)(F)F)c1` (stereo not drawn) [compound 298], the results for the IC50 at ACSS2 [2] and against ACSS2 [1] were 0.01 to 6 nM and 0.5 to 50 nM, respectively. Consider `CC1=NN(c2cccc(C(=O)OC(C)C)c2)C(=O)C1C(=O)Nc1cccc(-c2cnccn2)c1` (stereo not drawn) [compound 234], for which the concentration for half-maximal inhibition (IC50) was 0.01 to 6 nM on ACSS2 [2] and > 100 nM at ACSS2 [1].

On to `COc1ccc(N2N=C(C)C(C(=O)Nc3cccc(C(C)(F)F)c3)C2=O)cc1-c1ccccn1` (stereo not drawn) [compound 331], for which the IC50 on ACSS2 [1] fell in the range of 0.5 to 50 nM. Consider `CC1=NN(c2ccc(OC3COC3)cc2)C(=O)C1C(=O)Nc1cccc(C(C)(F)F)c1` (stereo not drawn) [compound 326], for which the IC50 against ACSS2 [1] lay within 0.5 to 50 nM. For `CC1=NN(c2ccc(OC(F)F)c(-c3cncnc3)c2)C(=O)C1C(=O)Nc1cccc(C(C)(F)F)c1` (stereo not drawn) [compound 316], on ACSS2 [1], the IC50 was 0.5 to 50 nM.

For the compound `CC1=NN(c2cccc(C(F)(F)F)c2)C(=O)C1C(=O)Nc1cccc(C(C)(F)F)c1` (stereo not drawn) [compound 271], the results for the IC50 against ACSS2 [2] and against ACSS2 [1] were 0.01 to 6 nM and 0.5 to 50 nM, respectively.

On to `CC1=NN(c2ccc(OC(F)F)c(-c3ccncc3)c2)C(=O)C1C(=O)Nc1cccc(C(C)(F)F)c1` (stereo not drawn) [compound 315], for which the IC50 on ACSS2 [1] lay in the range of 0.5 to 50 nM.

As to `CC1=NN(c2ccc(OC(C)(C)C)cc2)C(=O)C1C(=O)Nc1cccc(C(C)(F)F)c1` (stereo not drawn) [compound 324], the IC50 at ACSS2 [1] lay within 0.5 to 50 nM. In turn, `COc1ccc(N2N=C(C)C(C(=O)Nc3cccc(C(C)(F)F)c3)C2=O)cc1-c1cnccn1` (stereo not drawn) [compound 332] gave an IC50 at ACSS2 [1] of 0.5 to 50 nM. On the same count and under the same terms, next, `CC1=NN(c2ccc(OC3CCCC3)cc2)C(=O)C1C(=O)Nc1cccc(C(C)(F)F)c1` (stereo not drawn) [compound 319]: 0.5 to 50 nM; `CC1=NN(c2ccc(C3CC3)cc2)C(=O)C1C(=O)Nc1cccc(C(C)(F)F)c1` (stereo not drawn) [compound 308]: 0.5 to 50 nM; `CCC(C)Oc1ccc(N2N=C(C)C(C(=O)Nc3cccc(C(C)(F)F)c3)C2=O)cc1` (stereo not drawn) [compound 321]: 0.5 to 50 nM. With `COc1ccc(N2N=C(C)C(C(=O)Nc3cccc(C(C)(F)F)c3)C2=O)c(C(C)(C)C)c1` (stereo not drawn) [compound 305], the IC50 at ACSS2 [1] was > 100 nM. As to `CC1=NN(c2ccc(OC(F)F)c(-c3ccccc3)c2)C(=O)C1C(=O)Nc1cccc(C(C)(F)F)c1` (stereo not drawn) [compound 312], on ACSS2 [1], the IC50 is 50 to 100 nM.

For `COc1ccc(N2N=C(C)C(C(=O)Nc3cccc(C(C)(F)F)c3)C2=O)c(F)c1` (stereo not drawn) [compound 314], the IC50 against ACSS2 [1] was in the range of 0.5 to 50 nM.

As for `COc1ccc(N2N=C(C)C(C(=O)Nc3cccc(C(C)(F)F)c3)C2=O)cc1-c1cncnc1` (stereo not drawn) [compound 323], the IC50 on ACSS2 [1] was in the range of 0.5 to 50 nM.

On to `CC1=NN(c2ccc(OC(F)F)cc2)C(=O)C1C(=O)Nc1cc(C(C)(F)F)ccc1CO` (stereo not drawn) [compound 306], for which the IC50 against ACSS2 [1] lay in the range of 0.5 to 50 nM. `CC1=NN(c2ccc(OC(F)F)c(-c3ccccn3)c2)C(=O)C1C(=O)Nc1cccc(C(C)(F)F)c1` (stereo not drawn) [compound 327]: at ACSS2 [1], the IC50 is 0.5 to 50 nM.

The compound `CC1=NN(c2ccc(OC3CCCCC3)cc2)C(=O)C1C(=O)Nc1cccc(C(C)(F)F)c1` (stereo not drawn) [compound 322] had an IC50 on ACSS2 [1] of 0.5 to 50 nM.

Regarding `COc1cc(N2N=C(C)C(C(=O)Nc3cccc(C(C)(F)F)c3)C2=O)ccc1OC(F)F` (stereo not drawn) [compound 311], on ACSS2 [1], the IC50 lay in the range of 0.5 to 50 nM. In turn, `CC1=NN(c2ccc(OC(F)(F)F)cc2)C(=O)C1C(=O)Nc1cccc(C(C)(F)F)c1` (stereo not drawn) [compound 226] came in with an IC50 at ACSS2 [1] of 50 to 100 nM. For `CC1=NN(c2ccc(OC(F)F)c(-c3cnccn3)c2)C(=O)C1C(=O)Nc1cccc(C(C)(F)F)c1` (stereo not drawn) [compound 328], on ACSS2 [1], the IC50 lay within 0.5 to 50 nM. Still for that read-out and setting: next, `COc1ccc(N2N=C(C)C(C(=O)Nc3cccc(C(C)(F)F)c3)C2=O)cc1-c1cccnc1` (stereo not drawn) [compound 320]: 0.5 to 50 nM.

With `CC1=NN(c2ccccc2)C(=O)C1C(=O)NC1CCNCC1` (stereo not drawn) [compound 121, 3-methyl-5-oxo-1-phenyl-N-(4-piperidyl)-4H-pyrazole-4-carboxamide], the IC50 against ACSS2 [2] fell in the range of 1000 to 100000 nM.

On to `CC1=NN(c2ccc3cc[nH]c3c2)C(=O)C1C(=O)Nc1cccc(C(C)(F)F)c1` (stereo not drawn) [compound 410], for which the IC50 at ACSS2 [2] fell in the range of 0.01 to 6 nM. `CCc1cccc(NC(=O)C2C(=O)N(c3ccccc3)N=C2Cc2ccccc2)c1` (stereo not drawn) [compound 129, 3-benzyl-N-(3-ethylphenyl)-5-oxo-1-phenyl-4,5-dihydro-1H-pyrazole-4-carboxamide] had an IC50 against ACSS2 [2] of 1000 to 100000 nM.

On to `CC1=NN(c2cc(Br)cc(Cc3ccc(Cl)cc3)c2)C(=O)C1C(=O)Nc1cccc(C(C)(F)F)c1` (stereo not drawn) [compound 388], for which the IC50 on ACSS2 [2] fell in the range of 0.01 to 6 nM. Regarding `Cc1c(C(=O)Nc2ccccc2)c(=O)n(-c2ccccc2)n1C` [compound 190, 1,5-dimethyl-3-oxo-N,2-diphenyl-2,3-dihydro-1H-pyrazole-4-carboxamide], on ACSS2 [2], the IC50 is > 100000 nM. `COc1ccc(N2N=C(C)C(C(=O)Nc3cccc(C(C)(F)F)c3)C2=O)cc1-c1ncc(C)o1` (stereo not drawn) [compound 352] showed an IC50 on ACSS2 [2] of 0.01 to 6 nM. On the same count and under the same terms, under `CC1=NN(c2cc(Cc3ccc(Cl)cc3)cc(-c3cccnc3)c2)C(=O)C1C(=O)Nc1cccc(C(C)(F)F)c1` (stereo not drawn) [compound 384] stands 6 to 100 nM; under `CC1=NN(c2cc(Cc3ccc(OCc4ccccc4)cc3)cc(-c3cccnc3)c2)C(=O)C1C(=O)Nc1cccc(C(C)(F)F)c1` (stereo not drawn) [compound 373], 100 to 1000 nM. `CC1=NN(c2ccc(C3CC3)cc2)C(=O)C1C(=O)Nc1cccc(C(C)(F)F)c1` (stereo not drawn) [compound 457] came in with an IC50 against ACSS2 [2] of 0.01 to 6 nM. Compound `CC1=NN(c2ccc(Br)cc2)C(=O)C1C(=O)Nc1cccc(C(C)(F)F)c1` (stereo not drawn) [compound 422] had an IC50 at ACSS2 [2] of 0.01 to 6 nM. The same measure, in the same setting: under `CCc1cccc(NC(=O)C2C(=O)N(c3ccccc3)N=C2c2ccncc2)c1` (stereo not drawn) [compound 137, N-(3-ethylphenyl)-5-oxo-1-phenyl-3-(pyridin-4-yl)-4,5-dihydro-1H-pyrazole-4-carboxamide] stands 1000 to 100000 nM; under `CC1=NN(c2ccc(C(F)(F)F)cc2)C(=O)C1C(=O)Nc1cccc(-c2ccco2)c1` (stereo not drawn) [compound 162, N-(3-(furan-2-yl)phenyl)-3-methyl-5-oxo-1-(4-(trifluoromethyl)phenyl)-4,5-dihydro-1H-pyrazole-4-carboxamide], 6 to 100 nM; under `CC1=NN(c2ccc(OC(F)F)cc2)C(=O)C1NC(=O)c1cccc(C(C)(F)F)c1` (stereo not drawn) [compound 341], 100 to 1000 nM. `COc1ccc(N2N=C(C)C(C(=O)Nc3cccc(-c4ncco4)c3)C2=O)cc1` (stereo not drawn) [compound 256]: the concentration for half-maximal inhibition (IC50) against ACSS2 [2] fell in the range of 6 to 100 nM. For `CC1=NN(c2ccc3ccn(C)c3c2)C(=O)C1C(=O)Nc1cccc(C(C)(F)F)c1` (stereo not drawn) [compound 366], on ACSS2 [2], the IC50 fell in the range of 0.01 to 6 nM.

The compound `CC1=NN(c2ccc(OC(F)F)c(-c3cccnc3)c2)C(=O)C1C(=O)Nc1cccc(C(C)(F)F)c1` (stereo not drawn) [compound 310] had an IC50 on ACSS2 [1] of 0.5 to 50 nM. As for `CC1=NN(c2ccccc2)C(=O)C1C(=O)Nc1cccc(C2CCCC2)c1` (stereo not drawn) [compound 146, N-(3-cyclopentylphenyl)-3-methyl-5-oxo-1-phenyl-4,5-dihydro-1H-pyrazole-4-carboxamide], the IC50 at ACSS2 [2] fell in the range of 100 to 1000 nM.

On ACSS2 [2], `COc1c(-c2ccccc2)cc(N2N=C(C)C(C(=O)Nc3cccc(C(C)(F)F)c3)C2=O)cc1-c1ccccc1` (stereo not drawn) [compound 402] yielded an IC50 of 6 to 100 nM. `CCOC(=O)c1cc(NC(=O)C2C(=O)N(c3ccccc3)N=C2C)ccn1` (stereo not drawn) [compound 135, ethyl 4-(3-methyl-5-oxo-1-phenyl-4,5-dihydro-1H-pyrazole-4-carboxamido)picolinate] returned an IC50 at ACSS2 [2] of 100 to 1000 nM. In turn, `CC1=NN(c2ccc(OC(F)F)cc2)C(=O)C1C(=O)Nc1cccc(C(C)(O)c2ccccc2)c1` (stereo not drawn) [compound 337] yielded an IC50 against ACSS2 [2] of 6 to 100 nM.

In general, IC50 refers to the concentration needed to halve the response being measured.
